{"source": "patent US6531456B1", "about": "“Gene therapy for the treatment of solid tumors using recombinant adeno-associated virus vectors” (Avigen, Inc., priority 1996, dated 2003)", "key": {"[1]": {"details": "3 patients; cited from earlier work"}, "U-251SP cells": {"test_system": "U-251SP cells", "test": "In vitro bystander tumoricidal effect, coculture of transduced and non-transduced cells", "type": "cell-based, human", "details": "4.5 μg/mL ganciclovir, 3 days", "method": "FIG. 3 depicts the in vitro cytocidal bystander effect observed in non-transduced cells that were cultured with HSV-tk transduced cells as described in Example 3. Cell co-cultures containing a total of 1×10^4 cells were formed by combining cells that were transduced with rAAVtk-IRES-hIL2 virions at the following ratios: 1:0, 1:1, 1:10, 1:100 and 0:1 (transduced:nontransduced cells). After a 24 hour incubation, the co-cultures were exposed to 4.5 μg/mL of ganciclovir and allowed to incubate for an additional 3 days. Numbers of living cells were counted using the trypan blue dye exclusion method. The Figure indicates % cell survival compared to the cultures containing only non-transduced cells (0:1). The data is presented a mean +/− a standard error deviation based on duplicate experiments.\nIn order to assess the in vitro bystander tumoricidal effect of HSV-tk transduced cells on neighboring non-transduced cells, the following study was carried out. U-251SP cells were incubated for 12 hours in DMEM medium containing rAAVtk-IRES-hIL2 virions at a MOI of 1.9×10^6. Since this MOI was greater than the MOI determined necessary for 100% transduction by the rAAVlacZ virions (e.g., 3×10^5 as determined above in Example 1), the incubated cells were considered to be 100% transduced. The rAAVtk-IRES-hIL2 transduced cells were cocultured with non-transduced U-251SP cells at ratios of 1:0, 1:1, 1:10, 1:100 and 0:1 (transduced:nontransduced cells) to provide 1×10^4 total cells per well in a 24 well tissue culture plate. 24 hours after the coculture was initiated, 4.5 μg/mL of ganciclovir (DENOSINE® Roche, Basel, Switzerland) was added to each well in fresh media. After 3 days, the numbers of living cells were determined using the trypan blue dye exclusion method."}, "[2]": {"test_system": "human U-251SP glioma cells", "test": "In vitro sensitivity of rAAVtk-IRES-hIL2-transduced cells to ganciclovir", "type": "cell-based", "method": "More particularly, transduced cells were exposed to varying amounts of GCV to assess their sensitivity to the pro-drug. In the study 1×10^4 human U-251SP glioma cells were incubated for 12 hours with rAAVtk-IRES-hIL2 at MOIs of 0, 3×10^2, 3×10^3, 3×10^4, 3×10^5, and 3×10^6. The transduced cells were then incubated for an additional 72 hours in fresh medium containing serial dilutions of GCV at a final concentration of from 0.1-100 μg/mL.\nIn order to determine if cells transduced with the HSV-tk gene had enhanced susceptibility to the cytocidal effects of GCV, the following study was carried out. Recombinant AAV virion-transduced cells were exposed to varying amounts of GCV to assess their sensitivity to the drug. Particularly, 1×10^4 human U-251SP glioma cells/well (cultured in 200 μL of complete medium) were incubated with various concentrations of rAAVtk-IRES-hIL2 (at MOIs of 0, 3×10^2, 3×10^3, 3×10^4, 3×10^5, and 3×10^6) for 12 hours. The transduced cells were then incubated for an additional 72 hours in fresh medium containing serial dilutions of GCV at a final concentration of from 0.1-100 μg/mL. The numbers of living cells were then determined using the trypan blue dye exclusion method, and compared with those of nontransduced cells cultured without GCV treatment."}}}
{"smiles": "Nc1nc(O)c2ncn(COC(CO)CO)c2n1", "note": "[GCV, ganciclovir]", "values": [{"measurement": "concentration in the CSF", "setting": "[1]", "value": "310 to 680", "unit": "ng/mL"}, {"measurement": "concentration in the plasma", "setting": "[1]", "value": "440 to 2200", "unit": "ng/mL"}, {"measurement": "tumoricidal effect compared with only non-transduced cells (0:1)", "setting": "U-251SP cells; 1% rAAVtk-IRES-hIL2-transduced cells (1:100)", "value": 15.1, "unit": "%"}, {"measurement": "tumoricidal effect compared with only non-transduced cells (0:1)", "setting": "U-251SP cells; 10% rAAVtk-IRES-hIL2-transduced cells (1:10)", "value": 58.1, "unit": "%"}, {"measurement": "sensitivity to GCV killing", "setting": "U-251SP cells; 50% rAAVtk-IRES-hIL2-transduced cells (1:1)", "value": "as sensitive to GCV killing as were cultures containing 100% transduced cells"}, {"measurement": "inhibition", "setting": "[2]; 4.5 μg/mL of GCV, rAAVtk-IRES-hIL2 at a MOI of 3×10^3", "value": "more than 80%"}, {"measurement": "IC50", "setting": "[2]; Homo sapiens, Glioma cell, GCV 72 hours, cells exposed to rAAVtk-IRES-hIL2 at a MOI of 3×10^3 or greater, read-out: TCID50", "value": "< 0.28", "unit": "µg/mL"}, {"measurement": "effect on cell growth", "setting": "[2]; high doses of GCV, non-transduced cells", "value": "mild inhibitory effect"}]}
